Laboratory results as given in PMC2882332, “Species Used for Drug Testing Reveal Different Inhibition Susceptibility for 17beta-Hydroxysteroid Dehydrogenase Type 1” (PLoS ONE, 2010).

What was measured:
[1] = system: 17β-HSD 1 orthologs of five species; assay: In vitro enzymatic activity, 17β-HSD 1 orthologs of five species taken together; assay type: biochemical, human, marmoset, mouse, pig, rat; details: average over the 17β-HSD 1 orthologs of the species; 2 µM compound
mouse 17β-HSD 1 = molecular target: T1, mouse 17β-HSD 1 (Mus musculus, UniProt P51656); assay: In vitro enzymatic activity, recombinant mouse 17β-HSD 1; assay type: biochemical; details: 2 µM compound, 15 nM 3H-estrone, read-out: Observed % inhibition
T1 construct: Full length cDNAs of several 17β-HSDs type 1 originating from different species were cloned; made in house; host or cells: E.coli BL21 DE3 Codon Plus RP
T1 sequence (P51656 1-344): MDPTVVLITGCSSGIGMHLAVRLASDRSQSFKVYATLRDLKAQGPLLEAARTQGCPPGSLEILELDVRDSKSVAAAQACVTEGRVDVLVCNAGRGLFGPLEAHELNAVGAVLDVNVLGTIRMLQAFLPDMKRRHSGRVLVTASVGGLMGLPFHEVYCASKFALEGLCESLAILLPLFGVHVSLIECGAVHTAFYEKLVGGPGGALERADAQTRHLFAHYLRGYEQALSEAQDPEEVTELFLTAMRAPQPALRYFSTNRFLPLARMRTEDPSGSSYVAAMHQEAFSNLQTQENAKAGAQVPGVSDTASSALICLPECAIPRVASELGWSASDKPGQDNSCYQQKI
Text: (§1) Full length cDNAs of several 17β-HSDs type 1 originating from different species were cloned either into the pQE30 vector (human 17β-HSD 1, coding for acc. no. NP_000404) for expression as His-Tag protein or into a modified pGex-2T vector [63] (mouse 17β-HSD 1, acc. no. NP_034605; rat 17β-HSD 1, acc. no. NP_036983; marmoset 17β-HSD 1, acc. no. AAG01115; porcine 17β-HSD 1, acc. no. NP_001121944) for expression as GST-fusion proteins. The marmoset 17β-HSD 1 enzyme sequence was updated by the missing N-terminal part (AF272013) and the new porcine sequence was submitted to GenBank (NP_001121944). Human 17β-HSDs 2, 4, 5 (AKR1C3, the latter kindly provided by Dr. T. Penning) and 7 were all cloned into the modified pGEX-2T vector. For 17β-HSD 4 only the SDR-domain converting the steroids was subcloned. Plasmids were transformed into E.coli BL21 DE3 Codon Plus RP (Stratagene) and enzyme expression was induced by 0.5 mM IPTG. After 4h incubation at 37°C with continuous shaking bacteria were pelleted by centrifugation at 10.000×g. Pellets were stored until use at −20°C.
(§2) The bacteria containing recombinant enzymes were resuspended in PBS and enzymatic assays were performed in 100 mM sodium phosphate buffer at pH 6.6 for the reductive reaction and at pH 7.7 for the oxidative reaction. […] All substrates were purchased from NEN/Perkin Elmer. The cofactors NADPH (Sigma; for reductive reactions) and NAD^+ (Serva, for oxidative reactions) were used at final concentrations of 0.5 mg/ml. […] The incubation at 37°C was stopped with 0.21 M ascorbic acid in methanol∶acetic acid 99∶1 (v∶v) after the time needed to convert approximately 30% of the substrate in a control assay with 1% DMSO, without inhibitor candidates. […] The solvent used was acetonitrile∶water (43∶57, v∶v) at a flow rate of 1 ml/min. Radioactivity was detected by online-scintillation counting (Berthold LB506D) after mixing with ReadyFlowIII (Beckman). Conversion was calculated from integration of substrate and product peaks. […] All assays were run in duplicates of two independent experiments and mean values are reported. The IC50 values were determined by the One Ligand Binding model of SigmaPlot kinetics module.

rat 17β-HSD 1 = molecular target: T2, rat 17β-HSD 1 (Rattus norvegicus, UniProt P51657); assay: In vitro enzymatic activity, recombinant rat 17β-HSD 1; assay type: biochemical; details: 2 µM compound, 15 nM 3H-estrone, read-out: Observed % inhibition
T2 construct: Full length cDNAs of several 17β-HSDs type 1 originating from different species were cloned; made in house; host or cells: E.coli BL21 DE3 Codon Plus RP
T2 sequence (P51657 1-344): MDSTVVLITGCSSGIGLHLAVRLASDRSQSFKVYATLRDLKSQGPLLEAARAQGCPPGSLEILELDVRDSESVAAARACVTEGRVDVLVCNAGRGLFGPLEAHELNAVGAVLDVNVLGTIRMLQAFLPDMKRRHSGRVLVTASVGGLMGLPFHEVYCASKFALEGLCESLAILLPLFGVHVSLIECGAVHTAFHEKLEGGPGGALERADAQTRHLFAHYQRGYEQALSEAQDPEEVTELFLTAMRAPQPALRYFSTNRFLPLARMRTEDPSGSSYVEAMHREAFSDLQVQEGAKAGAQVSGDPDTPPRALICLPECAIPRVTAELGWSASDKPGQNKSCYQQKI
Text: as §1, §2

porcine 17β-HSD 1 = molecular target: T3, porcine 17β-HSD 1 (Sus scrofa, UniProt B2X0A4); assay: In vitro enzymatic activity, recombinant porcine 17β-HSD 1; assay type: biochemical, pig; details: read-out: Observed % inhibition
T3 sequence (B2X0A4 1-321): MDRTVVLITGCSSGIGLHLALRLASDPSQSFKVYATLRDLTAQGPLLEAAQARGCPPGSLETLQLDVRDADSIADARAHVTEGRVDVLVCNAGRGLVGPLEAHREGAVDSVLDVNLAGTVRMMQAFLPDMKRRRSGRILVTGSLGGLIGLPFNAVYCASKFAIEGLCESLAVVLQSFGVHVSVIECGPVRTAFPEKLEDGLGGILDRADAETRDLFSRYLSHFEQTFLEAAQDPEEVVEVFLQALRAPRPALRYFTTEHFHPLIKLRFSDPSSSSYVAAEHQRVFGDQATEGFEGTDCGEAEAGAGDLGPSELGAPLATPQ
Text: as §1, §2

human 17β-HSD 1 = molecular target: T4, human 17β-HSD 1 (Homo sapiens, UniProt P14061); assay: In vitro enzymatic activity, recombinant human 17β-HSD 1 (estrone reduction); assay type: biochemical; details: pH 6.6, read-out: Observed % inhibition
T4 construct: Full length cDNAs of several 17β-HSDs type 1 originating from different species were cloned; made in house; host or cells: E.coli BL21 DE3 Codon Plus RP
T4 sequence (P14061 1-328): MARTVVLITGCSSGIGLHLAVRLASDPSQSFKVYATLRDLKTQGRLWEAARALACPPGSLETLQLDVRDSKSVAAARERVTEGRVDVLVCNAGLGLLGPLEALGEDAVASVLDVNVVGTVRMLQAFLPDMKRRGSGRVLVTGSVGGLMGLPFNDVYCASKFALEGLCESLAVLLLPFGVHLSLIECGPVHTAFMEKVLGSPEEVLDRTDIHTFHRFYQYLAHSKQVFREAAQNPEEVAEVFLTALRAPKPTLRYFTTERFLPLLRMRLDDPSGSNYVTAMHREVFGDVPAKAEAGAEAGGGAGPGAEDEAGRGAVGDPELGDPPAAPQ
Text: as §1, §2

marmoset 17β-HSD 1 = molecular target: T5, marmoset 17β-HSD 1 (Callithrix jacchus, UniProt Q9GME2); assay: In vitro enzymatic activity, recombinant marmoset 17β-HSD 1; assay type: biochemical; details: marmoset 17β-HSD 1; 2 µM compound; 15 nM 3H-estrone; read-out: Observed % inhibition
T5 sequence (Q9GME2 1-314): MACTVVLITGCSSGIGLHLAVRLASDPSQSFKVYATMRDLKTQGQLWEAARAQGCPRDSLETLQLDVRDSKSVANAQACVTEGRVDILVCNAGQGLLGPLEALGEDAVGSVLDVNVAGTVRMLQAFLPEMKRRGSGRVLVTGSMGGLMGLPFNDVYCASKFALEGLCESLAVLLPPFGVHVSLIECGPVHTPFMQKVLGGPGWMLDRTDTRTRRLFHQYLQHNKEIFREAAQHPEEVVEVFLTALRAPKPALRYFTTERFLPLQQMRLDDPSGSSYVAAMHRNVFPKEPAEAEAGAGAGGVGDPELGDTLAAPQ
Text: as §1, §2

## C[C@]12CC[C@@H]3c4ccc(O)cc4CC[C@H]3[C@@H]1CCC2=O [Compound 6, estrone, reference compound]
[1]
  Observed % inhibition, average: 95.4%
Mouse 17β-HSD 1
  inhibition at 2 µM: 101%
Rat 17β-HSD 1
  inhibition at 2 µM: 79.1%
Porcine 17β-HSD 1
  inhibition at 2 µM: 86.3%
Human 17β-HSD 1
  inhibition at 2 µM: 101%
Marmoset 17β-HSD 1
  inhibition at 2 µM: 110%
